{"source": "PubChem BioAssay AID1963854", "about": "(Molecular Pharmacology Branch, DTP, NCI, 2024)", "system": "186277-243-T-J2-PDC complex spheroid viability", "test": "Anticancer human tumor 186277-243-T-J2-PDC patient-derived colon adenocarcinoma cell line growth inhibition [POLQ]", "settings": "for viability, T/C: stronger effect = lower value", "experimental": "Multicellular complex tumor spheroid response to Polymerase (POL) inhibitors (novobiocin, ART-558, RP6685) in combination with a variety of drugs and investigational agents in selected tumor cell lines\nThe POL inhibitors (novobiocin, ART-558, and RP6685) were evaluated both individually and in combination with standard of care and investigational anticancer small molecules within a complex spheroid model of solid tumors. . Complex spheroids include a stromal component modeled by human endothelial cells (HUVEC) and fibroblasts modeled by human mesenchymal stem cells (MSCs). The concentration ranges selected for each drug and investigational agent were based upon clinically achievable concentrations if the clinical Cmax of the agent was known.\nCompounds. The drugs and investigational agents: novobiocin (NSC847541), ART-558 (NSC835418), RP-6685 (NSC848927), peposertib (NSC802822), ceralasertib (NSC780249), elimusertib (NSC800525), camonsertib (NSC841442), AZD-1390 (NSC803789), olaparib (NSC753686), talazoparib (NSC767125), rucaparib (NSC756644), sotorasib (NSC818433), MRTX-1133 (NSC836407), SN-38 (NSC673596), topotecan (NSC609699), epotoside (NSC141540), doxorubicin (NSC123127), gemcitabine (NSC613327), 5-fluorouracil (NSC19893), paclitaxel (NSC125973), vemurafenib (NSC761431), MSA-2 (NSC828583), SN-011 (NSC837082), adavosertib (NSC754352), prexasertib (NSC758257), carboplatin (NSC241240) and oxaliplatin (NSC266046), were obtained from the National Cancer Institute (NCI) Developmental Therapeutics Program Chemical Repository (21). The FDA-approved anticancer drug set is available from the Developmental Therapeutics Program at https://dtp.cancer.gov/organization/dscb/obtaining/. […] The stock solutions were prepared in dimethyl sulfoxide (DMSO, Sigma-Aldrich, St. Louis, MO, cat. D2650), except for the platinum compounds which were prepared in saline (Quality Biological, Gaithersburg, MD, cat. 114-055-101), at 800-fold the tested concentration and stored at -70 degrees C prior to their use. All drugs and investigational agents were tested over a range starting from a high concentration at or near the clinical Cmax and decreasing in half-log increments. If the clinical Cmax for an agent had not been determined, the highest concentration tested was 10 microM, except for SN-38, which was tested at a high concentration of 1 microM.\nCell Culture. All cells were maintained in an incubator at 37 degrees C and 5% CO2 with 95% humidity. The PDC lines were cultured according to standard operating procedures established by the NCI PDMR (https://pdmr.cancer.gov). Table 3 of the manuscript, lists the cell lines along with the number of the three cell types plated to form the mct-spheroids and media for tumor cell growth. After thawing, all PDC lines, except 997537-175-T-J1-PDC and 415267-285-R-J2-PDC, were cultured in Matrigel-coated flasks prepared with a working solution of 1X Ham's F-12 nutrient mix, without supplementation (Thermo Fisher Scientific, cat. 11765054), 100 U/mL penicillin-streptomycin (Thermo Fisher Scientific, cat. 15140122), and 2.5% Matrigel (Corning Inc., Corning, NY, cat. 354248) for the first three passages. The two PDC lines 997537-175-T-J1-PDC and 415267-285-R-J2-PDC were cultured on uncoated flasks. The 857933-349-R-J2-PDC line was cultured in 6C/Colon 1B media containing advanced DMEM/F-12 (Thermo Fisher Scientific, cat. 12634028), 10 mM HEPES (Thermo Fisher Scientific, cat. 15630080), 1X GlutaMAX supplement (Thermo Fisher Scientific, cat. 35050061), 0.1 mg/mL primocin (InvivoGen, San Diego, CA, cat. ant-pm-2), 10% defined fetal bovine serum, heat inactivated (HyClone Laboratories Inc., Logan, UT, cat. SH30070.03HI), 50% L-WRN conditioned media (ATCC, cat. CRL-3276), 1.25 mM N-Acetyl-L-cysteine (Sigma-Aldrich, cat. A9165), 10 mM nicotinamide (Sigma-Aldrich, cat. N0636), 1X B-27 supplement (Thermo Fisher Scientific, cat. 17504044), 1X N-2 supplement (Thermo Fisher Scientific, cat. […]", "note": "“And” between values parts separate entries of the source, which are not always exact repeats. Identical values can stand only once.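 Further: spheroids exposed to compounds for seven days.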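 Wherever viability, T/C is given: 100% = DMSO vehicle control viability.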"}
{"smiles": "CNCc1ccc(-c2[nH]c3cc(F)cc4c3c2CCNC4=O)cc1", "values": [{"measurement": "viability, T/C", "setting": "compound 0.0316 µM", "value": "101% and 103% and 98.4%"}, {"measurement": "viability, T/C", "setting": "compound 0.1 µM", "value": "108% and 122% and 93.3%"}, {"measurement": "viability, T/C", "setting": "compound 0.316 µM", "value": "99.6% and 100% and 106%"}, {"measurement": "viability, T/C", "setting": "compound 1 µM", "value": "97.1% and 93.2% and 108%"}, {"measurement": "viability, T/C", "setting": "compound 3.16 µM", "value": "116% and 115% and 119%"}, {"measurement": "viability, T/C", "setting": "compound 10 µM", "value": "93.5% and 116% and 103%"}, {"measurement": "IC50", "setting": "curve of compound", "value": "> 10000", "unit": "nM"}]}
{"smiles": "COc1cc(C2c3cc4c(cc3C(OC3OC5COC(C)OC5C(O)C3O)C3COC(=O)C23)OCO4)cc(OC)c1O", "note": "(centres undefined) + Cc1cccc(N(C)C(=O)C2C(O)CCN2c2nc(C)cc(C(F)(F)F)c2C#N)c1", "values": [{"measurement": "IC50", "setting": "curve of first compound, second compound 0.0316 µM", "value": 1030, "unit": "nM"}, {"measurement": "IC50", "setting": "curve of first compound, second compound 0.1 µM", "value": 890, "unit": "nM"}, {"measurement": "IC50", "setting": "curve of first compound, second compound 0.316 µM", "value": 1070, "unit": "nM"}, {"measurement": "IC50", "setting": "curve of first compound, second compound 1 µM", "value": 976, "unit": "nM"}, {"measurement": "IC50", "setting": "curve of first compound, second compound 3.16 µM", "value": 749, "unit": "nM"}, {"measurement": "IC50", "setting": "curve of first compound, second compound 10 µM", "value": 528, "unit": "nM"}, {"measurement": "viability, T/C", "setting": "second compound 0.0316 µM, first compound 0.0316 µM", "value": 102, "unit": "%"}, {"measurement": "viability, T/C", "setting": "second compound 0.0316 µM, first compound 0.1 µM", "value": 104, "unit": "%"}, {"measurement": "viability, T/C", "setting": "second compound 0.0316 µM, first compound 0.316 µM", "value": 79.3, "unit": "%"}, {"measurement": "viability, T/C", "setting": "second compound 0.0316 µM, first compound 1 µM", "value": 48.8, "unit": "%"}, {"measurement": "viability, T/C", "setting": "second compound 0.0316 µM, first compound 3.16 µM", "value": 30.6, "unit": "%"}, {"measurement": "viability, T/C", "setting": "second compound 0.0316 µM, first compound 10 µM", "value": 14.3, "unit": "%"}, {"measurement": "viability, T/C", "setting": "second compound 0.1 µM, first compound 0.0316 µM", "value": 106, "unit": "%"}, {"measurement": "viability, T/C", "setting": "second compound 0.1 µM, first compound 0.1 µM", "value": 117, "unit": "%"}, {"measurement": "viability, T/C", "setting": "second compound 0.1 µM, first compound 0.316 µM", "value": 76, "unit": "%"}, {"measurement": "viability, T/C", "setting": "second compound 0.1 µM, first compound 1 µM", "value": 47.5, "unit": "%"}, {"measurement": "viability, T/C", "setting": "second compound 0.1 µM, first compound 3.16 µM", "value": 29.2, "unit": "%"}, {"measurement": "viability, T/C", "setting": "second compound 0.1 µM, first compound 10 µM", "value": 14.4, "unit": "%"}, {"measurement": "viability, T/C", "setting": "second compound 0.316 µM, first compound 0.0316 µM", "value": 105, "unit": "%"}, {"measurement": "viability, T/C", "setting": "second compound 0.316 µM, first compound 0.1 µM", "value": 99.2, "unit": "%"}, {"measurement": "viability, T/C", "setting": "second compound 0.316 µM, first compound 0.316 µM", "value": 80.5, "unit": "%"}, {"measurement": "viability, T/C", "setting": "second compound 0.316 µM, first compound 1 µM", "value": 48.4, "unit": "%"}, {"measurement": "viability, T/C", "setting": "second compound 0.316 µM, first compound 3.16 µM", "value": 31.7, "unit": "%"}, {"measurement": "viability, T/C", "setting": "second compound 0.316 µM, first compound 10 µM", "value": 14.5, "unit": "%"}, {"measurement": "viability, T/C", "setting": "second compound 1 µM, first compound 0.0316 µM", "value": 93.8, "unit": "%"}, {"measurement": "viability, T/C", "setting": "second compound 1 µM, first compound 0.1 µM", "value": 115, "unit": "%"}, {"measurement": "viability, T/C", "setting": "second compound 1 µM, first compound 0.316 µM", "value": 80.7, "unit": "%"}, {"measurement": "viability, T/C", "setting": "second compound 1 µM, first compound 1 µM", "value": 46, "unit": "%"}, {"measurement": "viability, T/C", "setting": "second compound 1 µM, first compound 3.16 µM", "value": 36.1, "unit": "%"}, {"measurement": "viability, T/C", "setting": "second compound 1 µM, first compound 10 µM", "value": 12.7, "unit": "%"}, {"measurement": "viability, T/C", "setting": "second compound 3.16 µM, first compound 0.0316 µM", "value": 105, "unit": "%"}, {"measurement": "viability, T/C", "setting": "second compound 3.16 µM, first compound 0.1 µM", "value": 124, "unit": "%"}, {"measurement": "viability, T/C", "setting": "second compound 3.16 µM, first compound 0.316 µM", "value": 66.7, "unit": "%"}, {"measurement": "viability, T/C", "setting": "second compound 3.16 µM, first compound 1 µM", "value": 46.6, "unit": "%"}, {"measurement": "viability, T/C", "setting": "second compound 3.16 µM, first compound 3.16 µM", "value": 27.2, "unit": "%"}, {"measurement": "viability, T/C", "setting": "second compound 3.16 µM, first compound 10 µM", "value": 13.4, "unit": "%"}, {"measurement": "viability, T/C", "setting": "second compound 10 µM, first compound 0.0316 µM", "value": 99.6, "unit": "%"}, {"measurement": "viability, T/C", "setting": "second compound 10 µM, first compound 0.1 µM", "value": 106, "unit": "%"}, {"measurement": "viability, T/C", "setting": "second compound 10 µM, first compound 0.316 µM", "value": 57.2, "unit": "%"}, {"measurement": "viability, T/C", "setting": "second compound 10 µM, first compound 1 µM", "value": 37.6, "unit": "%"}, {"measurement": "viability, T/C", "setting": "second compound 10 µM, first compound 3.16 µM", "value": 23.3, "unit": "%"}, {"measurement": "viability, T/C", "setting": "second compound 10 µM, first compound 10 µM", "value": 12.2, "unit": "%"}]}
